Marks after values point to notes of the source that are not given here.
Legend:
[1] = system: PGE2 synthesis in RA-stimulated U937 cells; assay: PGE2 synthesis in RA-stimulated U937 cells; format: cell-based, human
Method: (§1) U937 cells were thawed and resuspended in RPM1 and 10% FCS at 2×10^5 cells per ml. The cells were incubated in 5% CO2 at 37° C. and expanded in growing culture to at least 6.4×10^7 total cells. The cells were then resuspended in fresh medium and cultured with […] (RA) at 2×10^5 cells per ml for a further 3 days (72 h). RA treated cells were washed 2× in serum-free RPM and resuspended in serum-free medium at 5×10^6 cells per ml. The cells were aliquotted into Teflon tubes at 1 ml per tube. Working stock solutions of each test compound were prepared at 0.1 mM, 1 mM and 10 mM as described above. For each test compound at each working dilution, 10 μl was added to 1 ml cells to achieve a final concentration of 0 (DMSO alone), 1, 10, and 100 μM for each test compound. Cells were incubated in triplicate with each concentration of test compound for 15 min at 37° C. After 15 min pre-incubation, each 1 ml tube of cells received 5 μl of a […] solution of the calcium ionophore A23187 (to achieve 0.5 μM A23187). Incubation at 37° C. was continued for a further 30 min. After incubation, supernatants were collected by centrifugation at 2000 rpm for 10 min and stored at −20° C. until required for assay.

[2] = system: TXA2 synthesis in RA stimulated U937 cells; assay: TXA2 synthesis in RA-stimulated U937 cells; format: cell-based, human; conditions: for TXA2 / TXA2 (pg): A23187; for TXA2 (pg): test compound 100 μM
Method: as §1

AA-induced ear oedema = assay: Arachidonic acid (AA)-induced ear swelling in mice; format: in vivo, BALB/c mice; conditions: 25 mg/kg i/p; 1 h post-AA application
Method: Groups of 5-6 female BALB/c mice (ARC, WA, Australia), weighing 15-21 g were injected intraperitoneally (i/p) with test compound at 25 mg/kg delivered in polyethylene glycol (PEG) 400: phosphate buffered saline (PBS) 1:1 or ethanol: propanediol: PBS 4:9:7 either 30 min prior to or immediately before the inflammogen was applied to the ears. Mice were anaesthetised using isoflurane and baseline thickness of both ears was measured using a spring micrometer. Each mouse received a total of 20 μL of either AA in ethanol (50 mg/ml or 200 mg/ml) or PMA in either ethanol or acetone (0.2 mg/ml) applied to the inner and outer surfaces of each pinna (i.e. 0.5 mg or 2 mg AA or 2 μg PMA per ear). Mice were anaesthetised again to re-measure the ears at 1 h post-AA application and 5 h after PMA. The difference in ear swelling pre- and post-application of inflammogen for each ear was calculated, and the average for the two ears of each mouse taken. The difference in mean swelling of each test group compared to the group given vehicle alone was calculated using a general ANOVA using Dunnett's Multiple Comparison test when multiple compounds were tested in the one experiment or a two-tailed […] t-test when only one compound was tested (Prism 4, Graphpad Software). The data has been presented graphically as the mean percentage inhibition of oedema, calculated as: […]. Results

HPAC = assay: Anti-cancer activity, HPAC pancreatic cancer cells (MTT); format: cell-based; conditions: Homo sapiens, 120 h, 5 days
E-selectin = assay: TNFα-induced E-selectin expression in human arterial endothelial cells (ELISA); format: cell-based
Method: Inhibition of TNFα-stimulated endothelial cell activation by compounds was assessed by measuring surface expression of cell adhesion molecules with an ELISA method. Human arterial endothelial cells (HAEC) in growth medium (Cell Applications Inc.) were seeded into 96-well plates at a density of 10,000 cells per well. Plates were incubated overnight at 37° C. in a humidified incubator to allow for cells to become confluent. On the morning of the experiment, TNFα (10 μl, 2 ng/ml) was added to each well, which contained 100 μl of medium. Compounds were diluted in DMSO-containing medium (2.5% DMSO) to give a compound concentration of 100 and 300 μM. Compounds were added to wells so that final concentrations were 10 and 30 μM. DMSO-containing medium alone was added to zero concentration control wells. All samples were measured in quadruplicate (4 wells per treatment).
After incubation with compound, medium was removed and cells were probed with either non-specific IgG or specific mouse antibodies against E-selectin, ICAM or VCAM (BD Biosciences—0.1 μg in 100 μL buffered saline with 10% heat-inactivated human serum). Adhesion molecule expression was detected by addition of sheep anti-mouse antibody/horseradish peroxidase conjugate. […] Optical density was measured at 405 nm with an ELISA reader (Titertek Multiscan, Flow Laboratories). […]

IC50 (HPAC) [µM] | Compound | PGE2 ([1]; test compound 1 μM, A23187) [pg] | PGE2 ([1]; test compound 10 μM, A23187) [pg] | PGE2 ([1]; test compound 100 μM, A23187) [pg] | TXA2 ([2]; test compound 1 μM) [pg] | TXA2 ([2]; test compound 10 μM) [pg] | TXA2 (pg) [2] | % Change compared with vehicle (AA-induced ear oedema) [%] | Change in ear thickness (mean ± SD, × 0.01 mm) (AA-induced ear oedema) [× 0.01 mm] | inhibition of E-selectin expression (E-selectin; TNFα-stimulated HAEC, 4 hrs, FIG. 18) [%] | effect on PGE2 synthesis [1] | PGE2 (pg) ([1]; test compound 100 μM, A23187) | effect on TXA2 synthesis ([2]; 100 μM) | effect on TNFα-induced E-selectin expression (E-selectin; HAEC, 10 μM found most appropriate for comparing)
18.2 ± 8.1 | Oc1ccc(C2=Cc3cc4c(cc3OC2)OCN(Cc2ccccc2)C4)cc1 [Compound 1, 4-(3-Benzyl-2,3,4,8-tetrahydrochromeno[6,7-e][1,3]oxazin-7-yl)phenol] | 1.431 ± 0.154 | 0.702 ± 0.237 | 0.555 ± 0.064 | 48.720 ± 2.927 | 17.421 ± 5.747 | 6.397 ± 0.557^a pg | −18 | 20 ± 0.9 | > 50 | – | – | – | –
18.3 ± 11 | CC(c1ccccc1)N1COc2cc3c(cc2C1)C=C(c1ccc(O)cc1)CO3 (stereo not shown) [Compound 2, 4-(3-(1-Phenylethyl)-2,3,4,8-tetrahydrochromeno[6,7-e][1,3]oxazin-7-yl)phenol] | 1.303 ± 0.044 | 0.948 ± 0.111 | – | 30.680 ± 2.708 | 21.298 ± 0.914 | 2.313 ± 0.113^a pg | −39 | 15.9 ± 4.2 | – | inhibit PGE2 synthesis | 0.158 ± 0.027^a pg | inhibit TXA2 synthesis | –
– | Oc1cccc(C2=Cc3ccc(O)cc3OC2)c1 [Compound 37-DHE, 3′,7-dihydroxy-isoflav-3-ene, reference compound] | – | – | – | – | – | – | – | – | – | – | – | – | less pronounced
